# Test results taken from patent publication US20100009853A1, “PARASITIC PLANT CONTROL AGENT AND USE THEREOF” (Nihon Nohyaku Co., Ltd, priority 2006, published 2010).
# Values joined by “and” are separate entries in the source; they are usually repeats but may differ in a detail not shown here. Identical values can stand only once.
# Assays:
# Type in all cases: in vivo
# Orobanche minor [1] = assay: Test Example 5: soil irrigation treatment, parasitism of Orobanche minor on red clover; settings: for Average parasitism frequency per root: soil irrigation 20 ml/pot at 10, 20 and 30 days after sowing, untreated plot 2.08; for S4 bud formation per root / parasitism frequency / S4 bud formation: soil irrigation; for S4 bud formation per root: untreated plot 0.45; for parasitism frequency: 2000 and 200 ppm; for S4 bud formation: all treatment plots
# Procedure: (§1) The red clover seeds were sowed in a pot packed with soil (1/10000 ares) and Orobanche minor seeds were sowed around the red clover seeds, followed by cultivation in a greenhouse. After 10, 20 and 30 days of the sowing, agent liquid prepared into a predetermined concentration was irrigation-treated at a ratio of 20 ml/pot.
# red clover [2] = assay: Test Example 5: phytotoxicity of soil irrigation treatment on red clover; settings: symptom growth inhibition
# Procedure: as §1
# Orobanche minor [3] = assay: Test Example 6: foliage application treatment, parasitism of Orobanche minor on red clover; settings: for Average parasitism frequency per root: foliage application at 10, 20 and 30 days after sowing, untreated plot 2.08; for S4 bud formation per root / parasitism frequency decreasing tendency / S4 bud formation / parasitism frequency: foliage application; for S4 bud formation per root: untreated plot 0.45; for parasitism frequency decreasing tendency: 200 ppm or less; for S4 bud formation: 2000 and 200 ppm
# Text: (§2) The red clover seeds were sowed in a pot packed with soil (1/10000 ares) and Orobanche minor seeds were sowed around the red clover seeds, followed by cultivation in a greenhouse. After 10, 20 and 30 days of the sowing, sufficient amount of agent liquid diluted to a predetermined concentration with water was applied to the foliage using an atomizer, from single- to double-leaf stage of the red clover.
# Orobanche minor [4] = assay: Test Example 4: seed soaking treatment, parasitism of Orobanche minor on red clover; settings: for S4 bud formation per root / Average parasitism frequency per root: seed soaking 24 h; for S4 bud formation per root: untreated plot 0.45; for Average parasitism frequency per root: untreated plot 2.08; for S4 bud formation / total parasitism frequency of Orobanche minor: seed soaking, all treatment plots (200 and 20 ppm)
# Procedure: (§3) Red clover seeds were soaked for 24 hours in agent liquid which had been prepared into a predetermined concentration. The red clover seeds were sowed in a pot packed with soil (1/10000 ares) and Orobanche minor seeds were sowed around the red clover seeds, followed by cultivation in a greenhouse. Growth of the red clover and the parasitism frequency and growth of Orobanche minor were observed by visual observation.
# Orobanche minor [5] = assay: Test Example 3: foliage application treatment, parasitism of Orobanche minor on red clover; settings: for Average parasitism frequency per root: foliage application at 10, 20 and 30 days after sowing, untreated plot 2.55; for S4 bud formation per root: untreated plot 0.52
# Text: as §2
# red clover [6] = assay: Test Example 3: effect of foliage application on the host red clover
# Text: as §2
# Orobanche minor [7] = assay: Test Example 2: soil irrigation treatment, parasitism of Orobanche minor on red clover; settings: for Average parasitism frequency per root: soil irrigation 20 ml/pot at 10, 20 and 30 days after sowing, untreated plot 2.55; for S4 bud formation per root: untreated plot 0.52
# Procedure: as §1, with “sowing, an” for “sowing,”
# Orobanche minor [8] = assay: Test Example 1: seed soaking treatment, parasitism of Orobanche minor on red clover; settings: for Average parasitism frequency per root / S4 bud formation per root: seed soaking 24 h; for Average parasitism frequency per root: red clover host, untreated plot 2.55; for S4 bud formation per root: untreated plot 0.52
# Procedure: as §3, with “observation. The growth of Orobanche minor was evaluated based on the following four steps. [table]” for “observation.”
# parasitic plant = assay: Parasitic plant controlling activity (general statement); settings: general statement in the description
# crop plants = assay: Phytotoxicity for crop plants (general statement); settings: general statement in the description
compound,measurement,setting,value
"N#Cc1ccccc1NC(=O)c1snc(Cl)c1Cl [CICA, N-(2-cyanophenyl)-3,4-dichloroisothiazole-5-carboxamide]",Average parasitism frequency per root,Orobanche minor [1]; 20 ppm,1.99 per root
same,Average parasitism frequency per root,Orobanche minor [1]; 200 ppm,1.39 per root
same,Average parasitism frequency per root,Orobanche minor [1]; 2000 ppm,0.15 per root
same,S4 bud formation per root,Orobanche minor [1]; 20 ppm,0.10 per root
same,S4 bud formation per root,Orobanche minor [1]; 200 ppm,0.09 per root
same,parasitism frequency,Orobanche minor [1],reducing tendency
same,S4 bud formation per root,Orobanche minor [1]; 2000 ppm,0.04 per root
same,S4 bud formation,Orobanche minor [1],reduced
same,phytotoxicity,red clover [2]; 2000 ppm,weak
same,Average parasitism frequency per root,Orobanche minor [3]; 20 ppm,3.01 per root
same,Average parasitism frequency per root,Orobanche minor [3]; 200 ppm,2.05 per root
same,Average parasitism frequency per root,Orobanche minor [3]; 2000 ppm,0.44 per root
same,S4 bud formation per root,Orobanche minor [3]; 20 ppm,0.60 per root
same,parasitism frequency decreasing tendency,Orobanche minor [3],unclear
same,S4 bud formation per root,Orobanche minor [3]; 200 ppm,0.25 per root
same,S4 bud formation,Orobanche minor [3],decreasing tendency
same,parasitism frequency,Orobanche minor [3]; 2000 ppm,decreasing tendency
same,S4 bud formation per root,Orobanche minor [3]; 2000 ppm,0.03 per root
same,S4 bud formation per root,Orobanche minor [4]; 20 ppm,0.11 per root
same,Average parasitism frequency per root,Orobanche minor [4]; 20 ppm,1.36 per root
same,S4 bud formation per root,Orobanche minor [4]; 200 ppm,0.09 per root
same,Average parasitism frequency per root,Orobanche minor [4]; 200 ppm,1.15 per root
same,S4 bud formation,Orobanche minor [4],decreasing tendency
same,total parasitism frequency of Orobanche minor,Orobanche minor [4],decreasing tendency
"O=C(O)c1ccnc(Cl)c1 [INA, 2-chloroisonicotinic acid]",Average parasitism frequency per root,Orobanche minor [5]; 2 ppm,0.99 per root
same,Average parasitism frequency per root,Orobanche minor [5]; 20 ppm,0.94 per root
same,S4 bud formation per root,"Orobanche minor [5]; foliage application, 2 ppm",0.05 per root
same,S4 bud formation per root,"Orobanche minor [5]; foliage application, 20 ppm",0.03 per root
same,parasitism frequency,"Orobanche minor [5]; foliage application, concentration not given",lowered
same,growth of the host,red clover [6]; 200 ppm treatment plot,inhibited
same,Average parasitism frequency per root,Orobanche minor [7]; 2 ppm,1.49 per root
same,Average parasitism frequency per root,Orobanche minor [7]; 20 ppm,1.03 per root
same,S4 bud formation per root,"Orobanche minor [7]; soil irrigation, 2 ppm",0.07 per root
same,S4 bud formation per root,"Orobanche minor [7]; soil irrigation, 20 ppm",0.08 per root
same,parasitism frequency,"Orobanche minor [7]; soil irrigation, 200 ppm",slightly lowered
same,reduction of the S4 (bud formation),Orobanche minor [8]; seed soaking,large
same,Average parasitism frequency per root,Orobanche minor [8]; 20 ppm,2.28 per root
same,S4 bud formation per root,Orobanche minor [8]; 20 ppm,0.22 per root
same,Average parasitism frequency per root,Orobanche minor [8]; 200 ppm,1.03 per root
same,S4 bud formation per root,Orobanche minor [8]; 200 ppm,0.02 per root
same,number of total parasitized cases of Orobanche minor,"Orobanche minor [8]; seed soaking, 200 ppm",reducing tendency
"C=CCOC1=NS(=O)(=O)c2ccccc21 [PBZ, probenazole]",Average parasitism frequency per root,Orobanche minor [5]; 20 ppm,2.24 per root
same,Average parasitism frequency per root,Orobanche minor [5]; 200 ppm,1.75 per root
same,S4 bud formation per root,"Orobanche minor [5]; foliage application, 20 ppm",0.16 per root
same,S4 bud formation per root,"Orobanche minor [5]; foliage application, 200 ppm",0.18 per root
same,Average parasitism frequency per root,Orobanche minor [7]; 2 ppm,2.47 per root
same,Average parasitism frequency per root,Orobanche minor [7]; 20 ppm,3.17 per root
same,Average parasitism frequency per root,Orobanche minor [7]; 200 ppm,1.52 per root
same,S4 bud formation per root,"Orobanche minor [7]; soil irrigation, 2 ppm",0.13 per root
same,S4 bud formation per root,"Orobanche minor [7]; soil irrigation, 20 ppm",0.08 per root
same,S4 bud formation per root,"Orobanche minor [7]; soil irrigation, 200 ppm",0.08 per root
same,Average parasitism frequency per root,Orobanche minor [8]; 20 ppm,1.50 per root
same,S4 bud formation per root,Orobanche minor [8]; 20 ppm,0.28 per root
same,Average parasitism frequency per root,Orobanche minor [8]; 200 ppm,1.59 per root
same,S4 bud formation per root,Orobanche minor [8]; 200 ppm,0.29 per root
"O=C(O)c1ccccc1O [SA, salicylic acid]",Average parasitism frequency per root,Orobanche minor [5]; 2 ppm,1.91 per root
same,S4 bud formation per root,"Orobanche minor [5]; foliage application, 2 ppm",0.17 per root
same,S4 bud formation per root,"Orobanche minor [5]; foliage application, 20 ppm",0.38 per root
same,parasitism frequency,"Orobanche minor [5]; foliage application, 200 ppm",large
same,red clover withered (fraction of plants per pot),"red clover [6]; first treatment with 200 ppm, two pots",4/6 and 1/5
same,Average parasitism frequency per root,Orobanche minor [7]; 2 ppm,1.75 per root
same,Average parasitism frequency per root,Orobanche minor [7]; 20 ppm,2.47 per root
same,S4 bud formation per root,"Orobanche minor [7]; soil irrigation, 2 ppm",0.06 per root
same,S4 bud formation per root,"Orobanche minor [7]; soil irrigation, 20 ppm",0.03 per root
same,Average parasitism frequency per root,Orobanche minor [8]; 20 ppm,2.09 per root
same,S4 bud formation per root,Orobanche minor [8]; 20 ppm,0.38 per root
same,Average parasitism frequency per root,Orobanche minor [8]; 200 ppm,2.17 per root
same,S4 bud formation per root,Orobanche minor [8]; 200 ppm,0.44 per root
same,parasitic plant controlling activity,parasitic plant,not so high
"Cc1ccc(NC(=O)c2snnc2C)cc1Cl [TDN, tiadinil]","parasitism, dose relation",Orobanche minor [5]; foliage application,dose-related lowering
same,Average parasitism frequency per root,Orobanche minor [5]; 20 ppm,1.49 per root
same,Average parasitism frequency per root,Orobanche minor [5]; 200 ppm,1.02 per root
same,Average parasitism frequency per root,Orobanche minor [5]; 2000 ppm,0.24 per root
same,S4 bud formation per root,"Orobanche minor [5]; foliage application, 20 ppm",0.15 per root
same,S4 bud formation per root,"Orobanche minor [5]; foliage application, 200 ppm",0.06 per root
same,effect on parasitism,"Orobanche minor [5]; foliage application, 2000 ppm",high effect
same,S4 bud formation per root,"Orobanche minor [5]; foliage application, 2000 ppm",0.03 per root
same,phytotoxicity,crop plants,low
same,Average parasitism frequency per root,Orobanche minor [1]; 20 ppm,2.22 per root
same,Average parasitism frequency per root,Orobanche minor [1]; 200 ppm,1.55 per root
same,Average parasitism frequency per root,Orobanche minor [1]; 2000 ppm,0.22 per root
same,S4 bud formation per root,Orobanche minor [1]; 20 ppm,0.13 per root
same,S4 bud formation per root,Orobanche minor [1]; 200 ppm,0.11 per root
same,parasitism frequency,Orobanche minor [1],reducing tendency
same,S4 bud formation per root,Orobanche minor [1]; 2000 ppm,0.07 per root
same,S4 bud formation,Orobanche minor [1],reduced
same,effective concentration,Orobanche minor [7]; soil irrigation,≥ 200 ppm
same,"parasitism, dose relation",Orobanche minor [7]; soil irrigation,dose-related lowering
same,Average parasitism frequency per root,Orobanche minor [7]; 2 ppm,2.36 per root
same,Average parasitism frequency per root,Orobanche minor [7]; 20 ppm,1.71 per root
same,Average parasitism frequency per root,Orobanche minor [7]; 200 ppm,0.53 per root
same,Average parasitism frequency per root,Orobanche minor [7]; 2000 ppm,0.03 per root
same,S4 bud formation per root,"Orobanche minor [7]; soil irrigation, 2 ppm",0.17 per root
same,S4 bud formation per root,"Orobanche minor [7]; soil irrigation, 20 ppm",0.10 per root
same,S4 bud formation per root,"Orobanche minor [7]; soil irrigation, 200 ppm",0.16 per root
same,Parasitism,"Orobanche minor [7]; soil irrigation, 2000 ppm",hardly found
same,S4 bud formation per root,"Orobanche minor [7]; soil irrigation, 2000 ppm",0.00 per root
same,phytotoxicity,red clover [2]; 200 ppm,weak
same,phytotoxicity,red clover [2]; 2000 ppm,strong
same,Average parasitism frequency per root,Orobanche minor [8]; 20 ppm,1.07 per root
same,S4 bud formation per root,Orobanche minor [8]; 20 ppm,0.08 per root
same,Average parasitism frequency per root,Orobanche minor [8]; 200 ppm,2.57 per root
same,S4 bud formation per root,Orobanche minor [8]; 200 ppm,0.21 per root
same,Average parasitism frequency per root,Orobanche minor [8]; 2000 ppm,2.01 per root
same,S4 bud formation per root,Orobanche minor [8]; 2000 ppm,0.15 per root
same,number of total parasitized cases of Orobanche minor,"Orobanche minor [8]; seed soaking, 20 ppm",reducing tendency
same,parasitic plant controlling activity,parasitic plant,high
same,Average parasitism frequency per root,Orobanche minor [3]; 20 ppm,2.25 per root
same,Average parasitism frequency per root,Orobanche minor [3]; 200 ppm,1.92 per root
same,Average parasitism frequency per root,Orobanche minor [3]; 2000 ppm,0.34 per root
same,S4 bud formation per root,Orobanche minor [3]; 20 ppm,0.49 per root
same,parasitism frequency decreasing tendency,Orobanche minor [3],unclear
same,S4 bud formation per root,Orobanche minor [3]; 200 ppm,0.35 per root
same,S4 bud formation,Orobanche minor [3],decreasing tendency
same,parasitism frequency,Orobanche minor [3]; 2000 ppm,decreasing tendency
same,S4 bud formation per root,Orobanche minor [3]; 2000 ppm,0.15 per root
same,S4 bud formation per root,Orobanche minor [4]; 20 ppm,0.10 per root
same,Average parasitism frequency per root,Orobanche minor [4]; 20 ppm,1.12 per root
same,S4 bud formation per root,Orobanche minor [4]; 200 ppm,0.12 per root
same,Average parasitism frequency per root,Orobanche minor [4]; 200 ppm,0.05 per root
same,S4 bud formation,Orobanche minor [4],decreasing tendency
same,total parasitism frequency of Orobanche minor,Orobanche minor [4],decreasing tendency
